The results in this text go back to patent US8828942B2, “Means for treating synucleinopathies” (Affiris AG, priority 2009, dated 2014).

The subject of experiment [1] is monoclonal antibody 12-9-9. In words: In vitro binding assay (ELISA) with monoclonal antibody 12-9-9. The arrangement: species or system mouse; key to Binding: 0: no binding to 12-9-9 detectable in ELISA; 1: weak binding: binding of mimotope weaker compared to the minimal original sequence p5436; 2: strong binding: binding of mimotope similar to the minimal original sequence p5436. The settings on record: for Binding: binding capacity to 12-9-9 in ELISA, peptide-BSA coated (1 μM), compared with p5436; for detection/binding by monoclonal antibody 12-9-9 in ELISA: result in words. An excerpt:
A monoclonal antibody derived from the fusion “AFFiRiS 6”: Balb/c mice (Charles River) were immunized with original alpha-synuclein epitope LGKNEEGAPQ-C (SEQ ID NO:3) coupled to BTG (bovine thyroglobuline) and CFA (complete Freund's adjuvant; first injection) as well as IFA (incomplete Freund's adjuvant; 3 booster injections) as adjuvant. LGKNEEGAPQ-peptide-specific (SEQ ID NO: 203) antibody-producing hybridomas are detected by ELISA (LGKNEEGAPQC-peptide-coated (SEQ ID NO: 3)ELISA plates). Human alpha-synuclein (recombinant protein, p4446) is used as positive control peptide: hybridomas recognizing the recombinant protein immobilized on ELISA plates are included because they are binding both peptide and full length alpha-synuclein specifically. […] The Hybridoma clone (12-9-9; IgG1, kappa) was analysed for specific detection of the natural human alpha-synuclein epitope LGKNEEGAPQ. (SEQ ID NO: 203). 12-9-9 recognizes the injected epitope as well as full length alpha-synuclein protein (recombinant protein; obtained from rPeptide, Bogart, Ga., USA) in ELISA (see FIG. 2). […] Thus the minimal required epitope for binding has been defined as KNEEGAP (SEQ ID NO: 139).
Peptides derived from Phage Display as well as N-terminally truncated variants thereof were coupled to BSA and bound to ELISA plates (1 μM) and subsequently incubated with the monoclonal antibody that was used for the screening procedure to analyse binding capacity of identified peptides (see FIG. 4).
A general note: An ELISA detects its analyte on a solid surface through an enzyme-linked reagent.

Experiment [2] relates to recombinant human alpha-synuclein protein. Nature of the experiment: In vivo testing of mimotopes: serum titer against alpha-synuclein (ELISA). The note with it: mice immunized with peptide-KLH, alum, OD halfmax. As to the method:
Inhibiting as well as non-inhibiting peptides were coupled to KLH and injected into mice (wildtype C57/B16 or BalbC mice; subcutaneous injection into the flank) together with an appropriate adjuvant (aluminium hydroxide). Animals were vaccinated 3 times in biweekly intervals and sera were taken biweekly as well. Titers to injected peptides as well as to an irrelevant peptide were determined with every serum. Titers against the recombinant human alpha-synuclein protein and recombinant human beta-synuclein were determined starting with Serum 2 respectively. In general sera were analysed by reaction against peptides coupled to Bovine Serum Albumin (BSA) and recombinant full length proteins which were immobilised on ELISA plates. Titers were determined using anti mouse IgG specific antibodies. For examples of immunogenicity against injected peptide and alpha-synuclein see Table 5 and Table 6.
Female C57/B16 mice or BalbC, 5-6 mice per group, were subcutaneously immunized with 30 μg peptide coupled to KLH. Control groups were injected with PBS or the original epitope. As adjuvant alum was used. The peptides administered were all able to bind to monoclonal antibodies specifically binding aa100-109 of human alpha-synuclein although some of the peptides did inhibit the binding of the original epitope to its parental antibody in vitro only weakly (in an in vitro inhibition assay). The in vitro ELISA assay to determine the antibody titer was performed with sera of single mice (see Tab. 5) after each vaccination in a two week interval. The wells of the ELISA plate were coated with mimotope-BSA conjugates. The positive control was performed by reaction of the parental antibody with the respective mimotope-BSA conjugate. The detection was performed with anti-mouse IgG. Additionally, recombinant proteins were immobilised on ELISA plates and sera reacted accordingly. For all mimotopes tested in C57/B16 mice or BalbC, antibodies reacting to the individual injected peptide could be detected after repeated vaccination. Although not all mice induced higher titer against alpha-synuclein (see tab. 5 for examples).

The subject of experiment [3] is monoclonal antibody 12-9-9. In words: In vitro inhibition assay (ELISA). In kind it is binding, mouse. The arrangement: key: 0: no competition of 12-9-9 detectable in ELISA; 1: weak competition: competition of mimotope weaker compared to the minimal original sequence p5436; 2: strong competition: competition of mimotope similar to the minimal original sequence p5436. The settings on record: competition capacity in ELISA, peptide 400 μg/ml to 3 μg/ml, plates coated with p5436 and p4446. The protocol: Different amounts of peptides (concentrations ranging from 400 μg/ml to 3 μg/ml (serial dilutions), derived from Phage Display were incubated with the monoclonal antibody that was used for the screening procedure. Peptides diminishing subsequent binding of the antibody to the original human alpha-synuclein epitope (p5436) and the human alpha-synuclein protein (p4446) coated on ELISA plates were considered as inhibiting in this assay.

Entries after “also recorded” stand apart in the source; their conditions may differ.

Substance RQEEGAPC [p5589, mimotope] had a Binding in experiment [1] of 2.
For NEEGAPQC [p5399, reference compound], the “detection/binding by monoclonal antibody 12-9-9 in ELISA” value (“detection/binding” for short) in experiment [1] was “lost binding”.
For RNDEGAPC [p5587, mimotope], the “class of immunogenicity: a Syn” value in experiment [2] was 1 (peptides inducing an immune response with OD halfmax between 1000 and 51.). The Binding in experiment [1] turned out to be 2. The Competition in experiment [3] was 2.
Take TPAWKGEC [p5551, mimotope]: the Binding in experiment [1] was 1.
The substance RSEDGAPC [p5607, mimotope] displayed a Binding in experiment [1] of 2.
For APSWKGEC [p5556, mimotope], in experiment [2], the “class of immunogenicity: a Syn” value was 0 (peptides inducing no immune response or a very low immune response with OD halfmax around 50 or lower.). The substance further came in with a Binding in experiment [1] of 2. Besides, in experiment [3], the Competition was 1.
Consider QPSFAMEC [p5462, mimotope], for which the “class of immunogenicity: a Syn” value in experiment [2] is recorded as 0 (peptides inducing no immune response or a very low immune response with OD halfmax around 50 or lower.). The Binding in experiment [1] is on record as 2.
On to Alpha-synuclein [p4446], for which the Binding in experiment [1] is listed as 2. For the same substance, the “detection/binding” value is recorded as “detected; also recorded: retained full binding capacities” in experiment [1], “detected similarly” in experiment [1] (listed as Alpha-Synuclein) and “recognizes” in experiment [1] (listed as alpha-synuclein protein).
On to ANDEGAPC [p5591, mimotope], for which the Binding in experiment [1] is recorded as 2.
Substance KQEEGAPC [p5447, mimotope] returned a Binding in experiment [1] of 2.
Turning to QASSKLDC [p5549, mimotope], in experiment [1], the Binding was 1.
Consider KPSFKNEC [p5461, mimotope], for which the “class of immunogenicity: a Syn” value in experiment [2] was 0 (peptides inducing no immune response or a very low immune response with OD halfmax around 50 or lower.). In addition, the Binding in experiment [1] came out at 2.
As to KSDEGAPC [p5600, mimotope], in experiment [2], the “class of immunogenicity: a Syn” value was 1 (peptides inducing an immune response with OD halfmax between 1000 and 51.). This substance showed a Binding in experiment [1] of 2. Besides, the Competition in experiment [3] was found to be 1.
Take TPSAKGEC [p5557, mimotope]: the Competition in experiment [3] is reported as 1.
Substance RQDDGAPC [p5610, mimotope] displayed a Binding in experiment [1] of 2.
Substance QASFAMEC [p5547, mimotope] came in with a Binding in experiment [1] of 1.
For EGAPQC [p5401, reference compound], the “detection/binding” value in experiment [1] is on record as “lost binding”.
In experiment [1], KAEEGAPC [p5438, mimotope] registered a Binding of 1.
For the substance TASWKGEC [p5548, mimotope], in experiment [1], the Binding stood at 2. The substance also returned a Competition in experiment [3] of 1.
The substance ASEEGAPC [p5594, mimotope] returned a Binding in experiment [1] of 1.
Same read-out and setting: in the case of HNDEGAPC [p5596, mimotope] it was 2.
With CKNEEGAP [p5435, reference compound], in experiment [1], the Binding turned out to be 2. In addition, the Competition in experiment [3] turned out to be 1.
TPSWAGEC [p5558, mimotope] returned a Binding in experiment [1] of 2.
With RNEDGAPC [p5588, mimotope], the Binding in experiment [1] was 2. The substance also displayed a Competition in experiment [3] of 1.
Take DPSFALEC [p5465, mimotope]: in experiment [2], the “class of immunogenicity: a Syn” value is recorded as 0 (peptides inducing no immune response or a very low immune response with OD halfmax around 50 or lower.). This substance showed a Binding in experiment [1] of 2.
RQDEGAPC [p5602, mimotope] registered a Binding in experiment [1] of 2. The same substance yielded a Competition in experiment [3] of 1.
For ANEEGAPC [p5437, mimotope], the Binding in experiment [1] came to 2.
The same measure, in the same setting: as for CTPSWKGE [p5560, mimotope], the figure is 2; as for RSDEGAPC [p5606, mimotope], 2.
Take KNEEGAPQC [p5398, reference compound]: in experiment [1], the Binding is on record as 2 and the “detection/binding” value is “retained full binding capacities”. The Competition in experiment [3] amounted to 2.
As for GKNEEGAPQC [p5397, reference compound], in experiment [1], the Binding worked out at 2 and the “detection/binding” value is “retained full binding capacities”. This substance registered a Competition in experiment [3] of 2.
Turning to KSAEGAPC [p5599, mimotope], the Binding in experiment [1] was 2.
As to KSEEGAPC [p5448, mimotope], the Binding in experiment [1] stood at 2. Besides, the Competition in experiment [3] was found to be 1.
As for LGKNEEGAC [p5403, reference compound], the “detection/binding” value in experiment [1] is listed as “lost binding”.
In the case of RSAEGAPC [p5605, mimotope], the Binding in experiment [1] is on record as 2.
In the case of LGKNEC [p5406, reference compound], the “detection/binding” value in experiment [1] is reported as “lost binding”.
Consider QPSSKLDC [p5468, mimotope], for which, in experiment [2], the “class of immunogenicity: a Syn” value was 0 (peptides inducing no immune response or a very low immune response with OD halfmax around 50 or lower.). Also, the Binding in experiment [1] is 2.
HNAEGAPC [p5598, mimotope]: the Binding in experiment [1] is 1.
As for EEGAPQC [p5400, reference compound], the “detection/binding” value in experiment [1] was “lost binding”.
On to Beta-Synuclein [p4447], for which the “detection/binding” value is on record as “not detected” in experiment [1] and “does not detect” in experiment [1] (listed as beta-synuclein protein).
For HSAEGAPC [p5604, mimotope], in experiment [1], the Binding is 1.
Substance KNDDGAPC [p5449, mimotope] gave a Binding in experiment [1] of 2. Besides, in experiment [3], the Competition came out at 1.
Take HNEEGAPC [p5444, mimotope]: in experiment [1], the Binding turned out to be 2 and the “detection/binding” value is reported as “detected much weaker than the human epitope”.
Take LGKNEEGC [p5404, reference compound]: the “detection/binding” value in experiment [1] was “lost binding”.
KNEDGAPC [p5446, mimotope] had a Binding in experiment [1] of 2. Also, the Competition in experiment [3] was 1.
Turning to SPSFKQEC [p5463, mimotope], the “class of immunogenicity: a Syn” value in experiment [2] is listed as 0 (peptides inducing no immune response or a very low immune response with OD halfmax around 50 or lower.). For the same substance, in experiment [1], the Binding was found to be 2.
With HSDEGAPC [p5608, mimotope], the Binding in experiment [1] turned out to be 1.
As for KNEAGAPC [p5440, mimotope], the “detection/binding” value in experiment [1] was “not detected”.
RQEDGAPC [p5603, mimotope]: the Binding in experiment [1] was determined as 2. In addition, the Competition in experiment [3] is reported as 1.
Regarding LPSFRLEC [p5466, mimotope], the “class of immunogenicity: a Syn” value in experiment [2] was 0 (peptides inducing no immune response or a very low immune response with OD halfmax around 50 or lower.). The substance also showed a Binding in experiment [1] of 1.
In experiment [1], HSEEGAPC [p5593, mimotope] returned a Binding of 1.
In the case of LGKNEEGAPQC [p4453, reference compound], in experiment [1], the Binding is 2 and the “detection/binding” value is given as “detected; also recorded: retained full binding capacities”.
Consider KSEDGAPC [p5601, mimotope], for which, in experiment [1], the Binding came out at 2.
For LGKNEEC [p5405, reference compound], in experiment [1], the “detection/binding” value is “lost binding”.
